Test results as given in patent publication US20100203634A1, “Inhibition of stem cell differentiation, enhancement of proliferation and selective induction of apoptosis by Wnt factors” (DeltaCell B.V., priority 2003, published 2010).
Entries after “also recorded” stand apart in the source; their conditions may differ.

Columns and labels:
[1] = test system: mesenchyme and epithelium of fetal lung explants; assay: Apoptosis in lung explants by H/E histology (picnotic nuclei); format: cell-based, mouse
Procedure: The (fetal) murine lung explant culture was generated according to our standard protocol. Briefly, complete lungs or individually dissected lung lobes were isolated from fetal mice and cultured for one to five days in a hanging drop culture system. The Wnt3a polypeptide was administered to the culture medium in different concentrations, ranging from 0 to 4000 ng/ml. The effect of this treatment was monitored by stereomicroscopy. The lung explant cultures were subsequently fixed for 30 minutes in 10% paraformaldehyde (PFA), 30 minutes in 2% PFA and 30 minutes in 4% PFA. After fixation, the lung explants were dehydrated through an increasing series of 2-isopropanol and subsequently embedded in paraffin. For the histological analysis, 4 μm thick sections were cut and stained with Hematoxilin and Eosin using standard techniques.
In order to determine the concentration range in which the Wnt3a polypeptide is effective, total lung explants were cultured in the presence of Wnt3a in a range of 0 ng/ml, 500 ng/ml, 750 ng/ml, 1000 ng/ml, 2000 ng/ml and 4000 ng/ml (FIG. 2, Panels A-R).
After two days of culture, these lung explants were fixed and embedded in paraffin for immunohistological analysis.
To more exactly determine the concentration of Wnt3a that is effective upon lung development, differentiation and apoptosis, fetal lung explants were cultured for a longer period (four days) in the presence of lower concentrations of Wnt3a, i.e., 0 ng/ml, 4 ng/ml, 20 ng/ml, 100 ng/ml and 500 ng/ml (FIG. 4, Panels A-O).

[2] = test system: fetal lung explants (E12.5); assay: Quantification of cell proliferation using phospho histon H3 immunohistochemistry; format: cell-based, mouse
Procedure: The number of cells undergoing mitosis was measured using immunohistochemical detection of phosphorylated histon H3, which is present only on condensed chromosomes during mitosis. Per condition, at least four different lung explants were treated and in total, 20 sections per condition were counted for phospho histon H3-positive cells by two different investigators. The primary antibody against phopho histon H3 (Ser10, clone 6G3) was purchased from Cell Signaling Technology and used according to the recommendations of the supplier.
To further determine the short-term effect of different Wnt3A concentrations upon the induction of proliferation, lung explants (E12.5) were cultured for one day with 0, 30, 125 and 500 ng/ml Wnt3a.
The lung explants were processed for immunohistochemical analysis and stained for Histon H3 phosphorylation, which can be used as a quantifiable cell proliferation marker as it is present in a fixed amount on condensed chromosomes only during active cell division (material and methods). […] However, most of the increase in proliferation could be accounted to the mesenchyme, where an increase in 40 to 60% of cells undergoing […] was observed.

[3] = test system: fetal lung explants (E12.5); assay: Eight-day fetal lung explant culture, histology and tubulin-IV immunostaining (final lung differentiation); format: cell-based, mouse
Procedure: FIG. 7: The effect of Wnt3A on the final lung differentiation. The lung explants were cultured for eight days in the presence of 0 ng/ml (Panels A and B), 10 ng/ml (Panel C), 50 ng/ml (Panel D), 250 ng/ml (Panel E) and 500 ng/ml Wnt3A (Panel F). After embedding, histological sections were stained with a tubulin-IV antibody to mark ciliated bronchial epithelium. In addition, the sections were counterstained with Haematoxylin and Alcian Blue, which stained the mucus secreted from the bronchial epithelium and the cartilage associated with the tracheal epithelium.
The primary antibodies used for the immunohistochemical detection was for beta-catenin; anti beta-catenin IgG, mAb, clone 14 from BD-Transduction Laboratories, for tubulin-beta mAb clone TBN05 (Tub2.1) from Neomarkers, for BrdU; anti-Bromodeoxyuridine (BrdU), mAb clone ZBU30 from Zymed Laboratories Inc.
To further determine the effect of Wnt3A upon the development and differentiation of the lung over time, fetal lung explants of isolated E12.5 were cultured with 0, 10, 50, 250, and 500 ng/ml Wnt3A for eight days. Two hours before the fixation of the lung explants, BrdU was added to the culture medium, which is incorporated in newly synthesized DNA of active proliferating cells. After the different time points, the lung explants were processed for histological analysis and immuno staining of marker genes.

[4] = test system: Wnt-signaling pathway in normal human fetal lung fibroblast cell line HFL-1; assay: TopFlash/FopFlash reporter assay, HFL-1; format: cell-based; conditions: HFL-1, 20 hours
Procedure: (§1) Primary mouse fibroblasts isolated from E12.5 lung explants, the human epithelial lung carcinoma cell line A549 cells (ATCC CCL-185), the human epithelial lung adenocarcinoma cell line Calu-3 (ATCC_HTB-55) and the normal human fetal lung fibroblast cell line HFL-1 cells (ATCC—153) were cultured in 96-well plates and transfected with the TopFlash and FopFlash reporter constructs using lipofectamine 2000 according to the manufacturer's instructions. As an internal control for transfection efficiency, a constitutive renilla luciferase reporter (Promega) was cotransfected. The cells were transfected with the above-mentioned reporter constructs and simultaneously treated with different concentrations of Wnt3A for 20 hours, after which the cells were lysed and luciferase expression was measured using a Berthold luminometer for two seconds (V. Korinek et al., Mol. Cell. Biol. 18:1248-1256, 1998). […]
(§2) In order to analyze if Wnt3A is able to activate the Wnt signal-transduction pathway in humans, we stimulated three different cell lines from human origin with Wnt3A and measured the response with the TopFlash/FopFlash reporter assay. The three human lung-derived cell lines analyzed were the lung epithelial carcinoma cell line A549 (FIG. 9B), the normal lung fibroblast line HFL-1 (FIG. 9C), and the epithelial adenocarcinoma cell line calu-3 (FIG. 9D).

[5] = test system: Wnt-signaling pathway in human epithelial lung adenocarcinoma cell line Calu-3; assay: TopFlash/FopFlash reporter assay, Calu-3; format: cell-based; conditions: calu-3, 20 hours
Procedure: as §1, §2

## Wnt3a
[1]; 750 ng/ml, two days
  apoptosis in the epithelium: no sign of apoptosis whatsoever
  apoptosis in the mesenchyme: clearly detectable but not yet abundant
[1]; 1000 ng/ml, five days
  apoptosis in the epithelium: contained no apoptotic cells
  apoptosis in the mesenchyme: most of the mesenchymal cells surrounding the epithelium displayed picnotic nuclei; also recorded: massive induction of apoptosis in the mesenchyme
[1]; 1000 ng/ml, two days
  apoptosis in the epithelium: not detectable
[1]; between 100 and 500 ng/ml, four days
  apoptosis in the epithelium: no sign of apoptosis could be detected
[1]; conclusion
  concentration at which apoptosis in the epithelium is induced: higher than 1000 ng/ml
  concentration at which apoptosis in the mesenchyme is induced: greater than 100 ng/ml
[2]; 30 ng/ml, after one day
  effect on proliferation: markedly increases proliferation
[2]; 30, 125 and 500 ng/ml, one day
  increase in overall proliferation (phospho histon H3-positive cells): > 20%
[2]; one day
  concentration at which the maximum stimulatory effect on proliferation was reached: ≤ 30 ng/mL
[3]; 10 ng/ml, up to eight days
  effect on lung development (morphology): profound effects on lung development
[3]; 250 ng/ml, eight days
  flattening of the primordial epithelium to the type-I cell: almost completely suppressed
[3]; 500 ng/ml, after one day
  branching: inhibitory effect upon branching
[3]; 500 ng/ml, eight days
  branching: still severely suppressed
  differentiation of distal epithelium (alveolar and bronchiolar compartments): completely inhibited
  proximal structures (tubulin-IV, Haematoxylin and Alcian Blue): consist completely of proximal structures; also recorded: abundance of bronchial epithelium, mucus and cartilage
[3]; 10 to 250 ng/ml (to 500 ng/ml in FIG. 7), eight days
  alveolarization of the distal epithelium / flattened epithelium (alveolar-type-I cells): decreasing alveolarization of the distal epithelium; also recorded: loss of flattened epithelium (alveolar-type-I cells) with increasing dosage
[4]
  TopFlash/FopFlash reporter response: respond to Wnt3A in a dosage-dependent manner; also recorded: strong induction of the Wnt-signaling pathway
[5]
  TopFlash/FopFlash reporter response: respond to Wnt3A in a dosage-dependent manner; also recorded: strong induction of the Wnt-signaling pathway
